# Where two headings read alike, the source gives them in different places.
# Legend:
# [1] = system: RNA Polymerase II Serine 5 phosphorylation (Rpb1 CTD, downstream substrate of CDK7) in A549 cells; test: Imaging-based cellular RNA PolII Ser5 phosphorylation assay in A549 cells; assay type: cell-based, human; conditions: wild-type CDK7, RNA PolII Ser5 phosphorylation, averaged over all measurements; for IC50: Homo sapiens, A549, A549 cells, read-out: CDK7_A549 Wild-type CDK7 (pIC50) (converted); for CDK7_A549 Wild-type CDK7 (pIC50): A549 cells
# How it was run: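 IC50 derived by fitting % control (DMSO high, 10 μM reference low) against concentration, with Hill slope. Readout: high-content imaging of phospho-Ser5 Rpb1 CTD antibody staining in fixed, permeabilized A549 cells exposed to compound 3 h after 20 h culture in 1% FBS DMEM.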
# [2] = system: RNA Polymerase II Serine 5 phosphorylation in A549 cells overexpressing CDK7-mutant (C312S); test: Imaging-based cellular RNA PolII Ser5 phosphorylation assay in A549 cells overexpressing CDK7-mutant (C312S); assay type: cell-based, human; conditions: RNA PolII Ser5 phosphorylation, averaged over all measurements; for IC50: Homo sapiens, A549, A549 cells overexpressing CDK7-mutant (C312S), read-out: CDK7_A549 mutant hCDK7(pIC50) (converted); for CDK7_A549 mutant hCDK7(pIC50): A549 cells overexpressing CDK7-mutant (C312S)
# How it was run: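 Readout was automated imaging of anti-phospho-Ser5 Rpb1 CTD immunofluorescence, with IC50 fitted to % control versus concentration. Cells were A549 stably overexpressing non-covalently targetable CDK7 C312S alongside wild-type, exposed to compound 3 h at 37 °C. DMSO and 10 μM reference compound served as controls.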
# [3] = target: CDK7/cyclinH/MAT1 trimeric complex (Homo sapiens, UniProt P50613); test: In vitro CDK7 assay, potency of irreversible covalent inhibitors (kinact/KI), coupled PK/LDH ADP readout at 340 nm
# CDK7/cyclinH/MAT1 trimeric complex, sequence (P50613 whole entry): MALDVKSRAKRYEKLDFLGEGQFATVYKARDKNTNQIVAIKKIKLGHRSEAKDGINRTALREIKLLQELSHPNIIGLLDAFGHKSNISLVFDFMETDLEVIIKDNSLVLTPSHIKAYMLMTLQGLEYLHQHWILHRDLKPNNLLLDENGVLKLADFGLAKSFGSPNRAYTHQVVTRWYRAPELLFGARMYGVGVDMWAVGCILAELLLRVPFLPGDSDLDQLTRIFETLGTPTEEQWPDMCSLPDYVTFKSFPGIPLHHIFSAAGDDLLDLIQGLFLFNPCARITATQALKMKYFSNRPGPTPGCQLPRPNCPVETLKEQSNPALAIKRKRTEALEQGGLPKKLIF
# CDK7/cyclinH/MAT1 trimeric complex, sequence (P51946 whole entry partner): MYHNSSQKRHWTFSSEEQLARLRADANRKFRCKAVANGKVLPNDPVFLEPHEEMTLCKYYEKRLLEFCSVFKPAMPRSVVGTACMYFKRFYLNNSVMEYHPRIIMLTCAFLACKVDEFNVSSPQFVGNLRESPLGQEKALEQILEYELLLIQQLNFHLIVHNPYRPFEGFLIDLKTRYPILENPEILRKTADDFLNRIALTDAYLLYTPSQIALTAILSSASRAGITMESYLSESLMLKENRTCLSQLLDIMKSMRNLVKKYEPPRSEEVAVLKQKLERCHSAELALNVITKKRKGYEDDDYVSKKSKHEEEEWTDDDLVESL
# CDK7/cyclinH/MAT1 trimeric complex, sequence (P51948 whole entry partner): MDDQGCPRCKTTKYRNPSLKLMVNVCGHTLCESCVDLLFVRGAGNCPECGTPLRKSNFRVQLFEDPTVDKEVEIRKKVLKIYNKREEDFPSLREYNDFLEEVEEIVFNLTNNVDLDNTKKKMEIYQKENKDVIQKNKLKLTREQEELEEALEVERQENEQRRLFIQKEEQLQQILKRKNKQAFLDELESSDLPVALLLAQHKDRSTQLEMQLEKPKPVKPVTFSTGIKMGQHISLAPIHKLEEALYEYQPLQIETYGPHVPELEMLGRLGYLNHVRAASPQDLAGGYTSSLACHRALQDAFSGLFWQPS
# [4] = CDK7 (KI(μM)), […], 1 mM ATP, room temperature, averaged values over all measurements
# [5] = read-out: CDK7 (kinact, s^−1), kinact = maximal rate of inactivation, 1 mM ATP, room temperature, averaged values over all measurements
# [6] = read-out: CDK7 (kinact/KI, M^−1*s^−1), potency of irreversible covalent inhibitors, 1 mM ATP, room temperature, averaged values over all measurements
# [7] = read-out: CDK7 (20 nM enz.) (kinact/KI, M^−1*s^−1), 20 nM enzyme
# [8] = CDK7 (20 nM enz.) (KI, μM), 20 nM enzyme
# [9] = read-out: CDK7 (20 nM enz.) (kinact, s^−1), 20 nM enzyme
# [10] = read-out: CDK7 (20 nM enz.) (kobs/[I], M^−1*s^−1), 20 nM enzyme
Compound,IC50 [1] [nM],IC50 [2] [nM],"kinact/KI [3, 7] [M⁻¹ s⁻¹]","Ki [3, 8] [µM]","kinact [3, 9] [s⁻¹]","kinact/KI [3, 10] [M⁻¹ s⁻¹]",other results
C=CC(=O)N1CC(c2ncc(-c3ccc4c(c3)Nc3nccc(N5CCOCC5)c3CO4)cn2)C1 [Compound 56],182,> 10000,,,,,"Ki [3, 4]: 0.0673 µM; kinact [3, 5]: 6.99e-05 s⁻¹; kinact/KI [3, 6]: 1040 M⁻¹ s⁻¹"
O=C(/C=C/CN1CCOCC1)N1CC(N2CCC(c3ccc4c(c3)Nc3nccc(N5CCOCC5)c3CO4)CC2)C1 [Compound 57],1200,> 3980,,,,,"Ki [3, 4]: 0.248 µM; kinact [3, 5]: 0.000129 s⁻¹; kinact/KI [3, 6]: 518 M⁻¹ s⁻¹"
C=CC(=O)N1CC(c2cc(-c3ccc4c(c3)Nc3nccc(N5CCOCC5)c3CO4)ccn2)C1 [Compound 58],490,> 10000,,,,,"Ki [3, 4]: 0.112 µM; kinact [3, 5]: 5.76e-05 s⁻¹; kinact/KI [3, 6]: 516 M⁻¹ s⁻¹"
C=CC(=O)N1CC(N2CCC(c3cc(C)c4c(c3)Nc3nccc(C5CCOCC5)c3CO4)CC2)C1 [Compound 59],72.4,,1480,,,,CDK7_A549 mutant hCDK7(pIC50) [2]: <5.4
C=CC(=O)N1CC(N2CCC(c3ccc4c(c3)Nc3ncc(Cl)c(N5CCS(=O)(=O)CC5)c3CO4)CC2)C1 [Compound 60],977,> 10000,502,0.128,6.43e-05,,
C=CC(=O)N1CC(c2ccnc(-c3ccc4c(c3)Nc3nccc(N5CCOCC5)c3CO4)c2)C1 [Compound 61],1620,> 10000,36.6,1.32,4.84e-05,,
C=CC(=O)N1CC(N2CCC(c3cc(F)c4c(c3)Nc3nccc(N5CCOCC5)c3CO4)CC2)C1 [Compound 62],77.6,> 10000,2410,0.0266,6.42e-05,,
C=CC(=O)N1CC(N2CCC(c3ccc4c(c3)Nc3nccc(N5CCOC[C@@H]5C)c3CO4)CC2)C1 [Compound 63],288,> 10000,885,0.0857,7.59e-05,,
C=CC(=O)N1CCC2(CC1)CC(Cc1ccc3c(c1)Nc1nccc(C4CCOCC4)c1CO3)C2 [Compound 64],> 10000,> 10000,32,0.445,1.43e-05,,
C=CC(=O)Nc1ccc(CCc2ccc3c(c2)Nc2nccc(N4CCOCC4)c2CO3)cn1 [Compound 65],67.6,8710,,,,1160,
C=CC(=O)N1CC(N2CCC(c3cc(C)c4c(c3)Nc3nccc(N5CCOCC5)c3CO4)CC2)C1 [Compound 66],,,,,,1030,CDK7_A549 Wild-type CDK7 (pIC50) [1]: 7.16; CDK7_A549 mutant hCDK7(pIC50) [2]: <5
C=CC(=O)N1CC(N2[C@@H]3CC[C@H]2C[C@@H](c2ccc4c(c2)Nc2nccc(N5CCOCC5)c2CO4)C3)C1 [Compound 68],,,,,,,"CDK7_A549 Wild-type CDK7 (pIC50) [1]: 7.4; CDK7_A549 mutant hCDK7(pIC50) [2]: 5.14; CDK7 (20 nM enz.) (kobs/[I], M^−1*s^−1) ([3]; 20 nM enzyme): 1369 M⁻¹ s⁻¹"
C=CC(=O)N1CC(N2CCC(c3cc(C)c4c(c3)Nc3nccc(N5CCS(=O)(=O)CC5)c3CO4)CC2)C1 [Compound 71],245,> 10000,973,0.0575,5.6e-05,,
C=CC(=O)N1CC(N2CCC(c3cc(C)c4c(c3)Nc3nccc(C5CCOCC5)c3CO4)CC2)C1 [Compound 73],,,,,,,"CDK7_A549 Wild-type CDK7 (pIC50) [1]: 7.32; CDK7_A549 mutant hCDK7(pIC50) [2]: <5; CDK7 (20 nM enz.) (kinact/KI, M^−1*s^−1) ([3]; 20 nM enzyme): 1301.8 M⁻¹ s⁻¹"
C=CC(=O)N1CC(N2CCC(c3ccc4c(c3)Nc3nccc(N5CCOC6(CC6)C5)c3CO4)CC2)C1 [Compound 77],182,> 10000,1010,0.0571,5.75e-05,,
C=CC(=O)N1CCC(N2CCC(c3cc(C)c4c(c3)Nc3nccc(N5CCOCC5)c3CO4)CC2)C1 (stereo not shown) [Compound 78],26.9,8130,,,,908,
C=CC(=O)N1CCC(N2CCC(c3cc(C)c4c(c3)Nc3nccc(N5CCOCC5)c3CO4)CC2)CC1 [Compound 79],37.2,5890,,,,766,
C=CC(=O)N1CC(N2CCC(O)(c3ccc4c(c3)Nc3nccc(N5CCOCC5)c3CO4)CC2)C1 [Compound 80],417,> 10000,740,0.0563,4.16e-05,,
C=CC(=O)N1CC(N2CCC(c3cc(C)c4c(c3)Nc3nccc(C5=CCS(=O)(=O)CC5)c3CO4)CC2)C1 [Compound 81],417,> 10000,640,0.067,4.29e-05,,
C=CC(=O)N1CC(N2CCC(c3cc(Br)c4c(c3)Nc3nccc(C5CCOCC5)c3CO4)CC2)C1 [Compound 82],46.8,7940,,,,1570,
C=CC(=O)N1CC(N2CCC(c3ccc4c(c3)Nc3nccc(N5CCS(=O)(=NC)CC5)c3CO4)CC2)C1 [Compound 84],575,> 10000,354,0.191,6.74e-05,,
C=CC(=O)N1CCC(N2CC(c3cc(Cl)c4c(c3)Nc3nccc(-c5cnn(C)c5)c3CO4)C2)CC1 [Compound 85],81.3,4370,,,,608,
C=CC(=O)N1CCC(N2CC(c3cc(Cl)c4c(c3C)Nc3nccc(C5CCOCC5)c3CO4)C2)CC1 [Compound 86],1580,> 10000,63.1,0.397,2.5e-05,,
C=CC(=O)N1CC(N2CCC(c3cc4c(c(C5CC5)c3)OCc3c(C5CCOCC5)ccnc3N4)CC2)C1 [Compound 87],81.3,> 10000,,,,1420,
C=CC(=O)N1CC(N2CC(c3ccc4c(c3)Nc3nccc(N5CCOCC5)c3CO4)C2)C1 [Compound 88],162,> 10000,,,,1050,
C=CC(=O)N1CC(N2CCC(c3cc(Cl)c4c(c3)Nc3nccc(N5CCOCC5)c3CO4)CC2)C1 [Compound 91],,,,,,1740,CDK7_A549 Wild-type CDK7 (pIC50) [1]: 7.42; CDK7_A549 mutant hCDK7(pIC50) [2]: <5
C=CC(=O)N=S1(=O)CCN(c2ccnc3c2COc2ccc(C4CCN(C5CN(C(=O)C=C)C5)CC4)cc2N3)CC1 [Compound 94],> 10000,> 10000,11.2,3.37,3.79e-05,,
C=CC(=O)N1CCC(N2CCC(c3ccc4c(c3)Nc3nccc(N5CCS(=O)(=NC)CC5)c3CO4)CC2)CC1 [Compound 95],288,> 10000,101,0.48,4.87e-05,,
C=CC(=O)N1CCC(N2CC(c3ccc4c(c3)Nc3nccc(C5CCOCC5)c3CO4)C2)CC1 [Compound 96],123,> 10000,,0.184,,,"CDK7 (20 nM enz.) (kinact, s^−1) ([3]; 20 nM enzyme): 4.701e-05 s⁻¹; CDK7 (20 nM enz.) (kinact/KI, M^−1*s^−1) ([3]; 20 nM enzyme): 255.867 M⁻¹ s⁻¹"
C=CC(=O)N1CC(N2CCC(c3cc(C)c4c(c3)Nc3nccc(-c5cnn(C)c5)c3CO4)CC2)C1 [Compound 99],44.7,> 10000,,,,1440,

# Source: patent publication US20240254138A1, “TRICYCLIC PYRIMIDINES AS CYCLIN-DEPENDENT KINASE 7 (CDK7) INHIBITORS” (JANSSEN PHARMACEUTICA NV, priority 2021, published 2024)
